# Where “and” joins values, the source holds several entries; their conditions need not be identical. Equal entries are not always repeated. Where two headings read alike, the source gives them in different places.
# Legend:
# [1] = system: bacillus atrophaeus spores; settings: 3.12 percent H2O2; time 30 min relative to time zero; no machine operation, without cartons
# Method: (§1) Studies were conducted to determine the microbial eradication on mandrels 34 that were subjected to vaporized sterilant introduced at the heaters 40. […] The efficacy of the mandrel sterilization was studied for both the mandrel caps 35 and the mandrel side tubes 37 (see FIG. 3).
# (§2) Each of the studies was further carried out using a testing media of bacillus atrophaeus spores for inoculating the mandrels. The mandrels were inoculated by spraying, using an aerating spray bottle having a solution with a concentration of about 7 log bacillus spores. The mandrels were then allowed to air dry. Controls were swabbed using cotton swabs to assure that the mandrels were properly inoculated. Following the machine operating period of the test, the mandrels were swabbed and the bacillus spores transferred to an agar media for incubation of the spores (at 32° C. for 48 hours) and subsequent recovery.
# In this part of the analysis, the form, fill and seal machine was operated without cartons and without indexing (rotation) of the mandrels.
# [2] = system: bacillus atrophaeus spores; settings: 2.52 percent H2O2, with cartons; for average count of colony forming units for the time period / log of average count for the time period: mean of samples; for average count of colony forming units for the time period / log of average count for the time period / Log Red. (Avg): normal speed; for Average CFU/mL / Average CFU/mandrel / Log (of Average CFU/mandrel) / Result #1 CFU/mL / Result #2 CFU/mL: normal operating speed
# Method: as §1, §2
# The data was collected by taking swab samples at the mandrel cap (C) and on the mandrel side tubes (T). The mandrel side tube data is the sum of all of the side tubes.
# [3] = time 0 min, swab site C (mandrel cap)
# [4] = time 0 min, swab site T (mandrel side tubes)
# [5] = time 10 min, swab site C (mandrel cap)
# [6] = time 10 min, swab site T (mandrel side tubes)
# [7] = time 20 min, swab site C (mandrel cap)
# [8] = time 20 min, swab site T (mandrel side tubes)
# [9] = time 30 min, swab site C (mandrel cap)
# [10] = time 30 min, swab site T (mandrel side tubes)
# [11] = time 40 min, swab site T (mandrel side tubes)
structure (smiles),measurement,setting,value
OO [hydrogen peroxide],Log Red. (Avg.),[1],0.11 Log
same,average count of colony forming units for the time period,"[2]; time 0 min, cap",5.09E+05 CFU/mandrel
same,log of average count for the time period,"[2]; time 0 min, cap",5.71 log
same,average count of colony forming units for the time period,"[2]; time 0 min, side tubes",7.12E+05 CFU/mandrel
same,log of average count for the time period,"[2]; time 0 min, side tubes",5.85 log
same,Average CFU/mL,[2]; [3],1.32E+05 CFU/mL and 1.23E+05 CFU/mL
same,Average CFU/mandrel,[2]; [3],5.28E+05 CFU/mandrel and 4.90E+05 CFU/mandrel
same,Log (of Average CFU/mandrel),[2]; [3],5.72 Log and 5.69 Log
same,Result #1 CFU/mL,[2]; [3],1.19E+05 CFU/mL and 1.30E+05 CFU/mL
same,Result #2 CFU/mL,[2]; [3],1.45E+05 CFU/mL and 1.15E+05 CFU/mL
same,Average CFU/mL,[2]; [4],1.83E+05 CFU/mL and 1.73E+05 CFU/mL
same,Average CFU/mandrel,[2]; [4],7.32E+05 CFU/mandrel and 6.92E+05 CFU/mandrel
same,Log (of Average CFU/mandrel),[2]; [4],5.86 Log and 5.84 Log
same,Result #1 CFU/mL,[2]; [4],1.39E+05 CFU/mL and 1.71E+05 CFU/mL
same,Result #2 CFU/mL,[2]; [4],2.27E+05 CFU/mL and 1.75E+05 CFU/mL
same,average count of colony forming units for the time period,"[2]; time 10 min, cap",1.57E+05 CFU/mandrel
same,log of average count for the time period,"[2]; time 10 min, cap",5.20 log
same,average count of colony forming units for the time period,"[2]; time 10 min, side tubes",3.58E+05 CFU/mandrel
same,log of average count for the time period,"[2]; time 10 min, side tubes",5.55 log
same,Average CFU/mL,[2]; [5],3.35E+04 CFU/mL and 4.50E+04 CFU/mL
same,Average CFU/mandrel,[2]; [5],1.34E+05 CFU/mandrel and 1.80E+05 CFU/mandrel
same,Log (of Average CFU/mandrel),[2]; [5],5.13 Log and 5.26 Log
same,Result #1 CFU/mL,[2]; [5],3.50E+04 CFU/mL and 4.40E+04 CFU/mL
same,Result #2 CFU/mL,[2]; [5],3.20E+04 CFU/mL and 4.60E+04 CFU/mL
same,Average CFU/mL,[2]; [6],9.25E+04 CFU/mL and 8.65E+04 CFU/mL
same,Average CFU/mandrel,[2]; [6],3.70E+05 CFU/mandrel and 3.46E+05 CFU/mandrel
same,Log (of Average CFU/mandrel),[2]; [6],5.57 Log and 5.54 Log
same,Result #2 CFU/mL,[2]; [6],9.70E+04 CFU/mL and 6.70E+04 CFU/mL
same,Log Red. (Avg),"[2]; time 10 min relative to time zero, cap",0.51 Log
same,Log Red. (Avg),"[2]; time 10 min relative to time zero, side tubes",0.30 Log
same,average count of colony forming units for the time period,"[2]; time 20 min, cap",8.86E+04 CFU/mandrel
same,log of average count for the time period,"[2]; time 20 min, cap",4.95 log
same,average count of colony forming units for the time period,"[2]; time 20 min, side tubes",4.49E+05 CFU/mandrel
same,log of average count for the time period,"[2]; time 20 min, side tubes",5.65 log
same,Log (of Average CFU/mandrel),[2]; [7],4.88 Log and 5.01 Log
same,Result #1 CFU/mL,[2]; [7],1.93E+04 CFU/mL and 2.82E+04 CFU/mL
same,Result #2 CFU/mL,[2]; [7],1.86E+04 CFU/mL and 2.25E+04 CFU/mL
same,Average CFU/mandrel,[2]; [8],5.58E+05 CFU/mandrel and 3.40E+05 CFU/mandrel
same,Log (of Average CFU/mandrel),[2]; [8],5.75 Log and 5.53 Log
same,Log Red. (Avg),"[2]; time 20 min relative to time zero, cap",0.76 Log
same,Log Red. (Avg),"[2]; time 20 min relative to time zero, side tubes",0.20 Log
same,average count of colony forming units for the time period,"[2]; time 30 min, cap",4.39E+04 CFU/mandrel
same,log of average count for the time period,"[2]; time 30 min, cap",4.64 log
same,average count of colony forming units for the time period,"[2]; time 30 min, side tubes",2.49E+05 CFU/mandrel
same,log of average count for the time period,"[2]; time 30 min, side tubes",5.40 log
same,Average CFU/mandrel,[2]; [9],5.06E+04 CFU/mandrel and 3.72E+04 CFU/mandrel
same,Log (of Average CFU/mandrel),[2]; [9],4.70 Log and 4.57 Log
same,Result #2 CFU/mL,[2]; [9],1.12E+04 CFU/mL and 1.04E+04 CFU/mL
same,Average CFU/mL,[2]; [10],6.25E+04 CFU/mL and 6.20E+04 CFU/mL
same,Average CFU/mandrel,[2]; [10],2.50E+05 CFU/mandrel and 2.48E+05 CFU/mandrel
same,Log (of Average CFU/mandrel),[2]; [10],5.40 Log and 5.39 Log
same,Result #1 CFU/mL,[2]; [10],6.30E+04 CFU/mL and 5.10E+04 CFU/mL
same,Result #2 CFU/mL,[2]; [10],6.20E+04 CFU/mL and 7.30E+04 CFU/mL
same,Log Red. (Avg),"[2]; time 30 min relative to time zero, cap",1.06 Log
same,Log Red. (Avg),"[2]; time 30 min relative to time zero, side tubes",0.46 Log
same,average count of colony forming units for the time period,"[2]; time 40 min, cap",5.21E+03 CFU/mandrel
same,log of average count for the time period,"[2]; time 40 min, cap",3.72 log
same,average count of colony forming units for the time period,"[2]; time 40 min, side tubes",1.15E+05 CFU/mandrel
same,log of average count for the time period,"[2]; time 40 min, side tubes",5.06 log
same,Average CFU/mL,[2]; [11],2.71E+04 CFU/mL and 3.05E+04 CFU/mL
same,Average CFU/mandrel,[2]; [11],1.08E+05 CFU/mandrel and 1.22E+05 CFU/mandrel
same,Log (of Average CFU/mandrel),[2]; [11],5.04 Log and 5.09 Log
same,Result #1 CFU/mL,[2]; [11],2.50E+04 CFU/mL and 2.89E+04 CFU/mL
same,Result #2 CFU/mL,[2]; [11],2.92E+04 CFU/mL and 3.21E+04 CFU/mL
same,Log Red. (Avg),"[2]; time 40 min relative to time zero, cap",1.99 Log
same,Log Red. (Avg),"[2]; time 40 min relative to time zero, side tubes",0.79 Log
